Reference: patent US20110275606A1, “SUBSTITUTED PORPHYRINS” (DUKE UNIVERSITY, priority 2009, published 2011)
Each block holds one compound with its values, some of them ahead of it.

Key:
[1] = tested on: 4T1 window chamber tumors; experiment: Radiosensitivity of tumor vasculature in vivo (window chamber); set-up: species or system mice; conditions: combined with radiation 3 x 5 Gy; 6 mg/kg/day for three days; between 48 and 72 hours post-radiation
Protocol: 4T1 window chamber tumors are randomized to treatment with PBS or MnTE-2-PyP^5+, and radiation or sham-irradiation. […] Tumors are imaged immediately after radiation (0 hours), and every day thereafter (24, 48, and 72 hours), and these images are used to calculate the tumor vascular length densities.
Mice are anesthetized with sodium pentobarbital (80 mg/kg, i.p.), and a 1-cm diameter circular incision is made in the dorsal skin flap, over which a titanium chamber is surgically implanted. A 10-μL suspension of tumor cells (5×10^3 cells) is then injected into the opposing flap of skin. […] Observations of window chamber tumors are performed daily on restrained, unanaesthetized mice with an inverted Zeiss fluorescence microscope (Carl Zeiss, Jena, Germany). Images are captured onto a personal computer with Scion Image software (Frederick, Md.) and analyzed with Adobe Photoshop (San Jose, Calif.). Tumor volume and vascular length densities are calculated as follows. Briefly, tumor volumes are calculated with the formula: d^2(3.14/2), where the diameter is determined from low-power (2.5×) microscopy images by comparing pixel dimensions with micrometer values. Vascular length densities are measured from medium-power (5×) fields by using image analysis software (Scion Image) to trace the vascular network. […]

[2] = Antioxidant properties: log kcat for the dismutation of superoxide (SOD activity); format: biochemical
Protocol: (§1) Table indicating the redox properties (E1/2 of the Mn^IIIP/Mn^IIP redox couple) and antioxidant (log kcat for the dismutation of superoxide, O2′^−) properties of ortho and meta isomers of Mn N-substituted pyridylporphyrins. The E1/2 and log kcat were determined as described in Reboucas et al., Dalton Trans., 2008, 1233-42. Rf is the ratio of the drug path over solvent path on thin-layer silica with water/acetonitrile/KNO3 saturated water and is a measure of […]. […] In addition, as the length of the pyridyl substituent increases the SOD activity of the ortho compounds drops while there is no change in the SOD activity of the meta compounds.

wild type cells = experiment: Annexin V/propidium iodide post-radiation apoptosis, wild type cells; format: cell-based; conditions: 5 Gy
Protocol: (§2) Annexin V/propidium iodide staining is used as a second method to measure radiation-induced cytotoxicity. Cells are incubated in fresh medium along with the compounds at the final concentrations indicated. One set of samples is irradiated (5 Gy) to efficiently induce apoptosis within 48 hours. An annexin V/propidium iodide kit (BioVision) is used to detect apoptotic cells. The annexin V is labeled with fluorescein isothiocyanate (FITC) to detect phospholipid phosphatidylserine (PS) on the outer membrane of apoptotic cells; propidium iodide (PI) is used to detect necrotic cells. The assay is performed according to the manufacturer's instructions. Briefly, approximately 5×10^5 cells are washed in PBS, resuspended in annexin V and PI staining solution for 15 min at room temperature and analyzed immediately by flow cytometry (Flow Cytometry Core, UCLA). Annexin V and propidium iodide staining is used to measure post-radiation apoptosis.

WT cells = experiment: XTT cell proliferation, radiation-induced cytotoxicity; format: cell-based; conditions: 5 Gy, 48 hours post-radiation, compared to untreated irradiated WT cells
Protocol: XTT, a tetrazolium salt, is used to measure cell viability after irradiation exposure. XTT is reduced by viable mitochondria to formazan, which causes a colorimetric change that can be measured at 450 nm. Approximately 5×10^4 cells are seeded per well in 96-well plates and incubated for 18 hours in fresh medium along with the compound at the final concentration indicated (3 replicates each). One set of plates is used as an unirradiated control and the other set was irradiated with 5 Gy. Five Gy is the optimal dose for observing efficient cytotoxicity within 48 hours. An XTT cell proliferation kit (Roche) is used to measure this cytotoxicity. All assays are performed in triplicate and the absorbance is read on a Spectramax plate reader. XTT is used to assess both the toxicity of the compounds and the effect of each compound on IR-induced cytotoxicity. All cells are pre-treated with the indicated compound two hours prior to being irradiated with 5 Gy and are assayed for viability 48 hours post-radiation.

[3] = tested on: B16F10 melanoma cell line; experiment: Hyperthermia plus Mn porphyrin, tumor growth delay; format: in vivo, C57/BL6 mice; conditions: combination with hyperthermia (1d, 5d, 8d); 5 mg/kg twice per day; sacrifice day 9
Protocol: Treatment with hyperthermia and Mn porphyrins leads to a significant delay in tumor growth. In C57/BL6 mice, B16F10 melanoma cell line ([…]) is implanted in right flank. […] Tumor volumes are measured. Animals are sacrificed at day 9.

SOD-deficient E. coli = experiment: Aerobic growth of SOD-deficient E. coli in minimal medium (turbidimetry at 700 nm); format: cell-based, Escherichia coli; conditions: 20 and 30 μM, 19th hour, positive control MnTE-2-PyP^5+
Protocol: Escherichia coli (E. coli) strains used were AB1157, wild type (F-thr-1; leuB6; proA2; his-4; thi-1; argE2; lacY1; galK2; rpsL; supE44; ara-14; xyl-15; mtl-1; tsx-33), and JI1132, SOD-deficient, sodA-sodB-(same as AB1157 plus (sodA::mudPR13)25 (sodB-kan)1-Δ2). Both strains were obtained from J. A. Imlay. In addition to AB/JI strains another strain GC and its SOD-deficient analogue QC were used. The experiments were carried out as described in more detail in Reboucas et al., Dalton Trans., 2008, 1233-42. Briefly, cultures were grown aerobically in a 5 amino acid restricted medium (L-leucine, L-threonine, L-proline, L-arginine, L-histidine) in flasks on a water bath shaker at 37° C. and 200 rpm. The effect of the compound of Example 1 on the growth of these strains was followed turbidimetrically at 700 nm (to minimize the interference of compounds studied) and compared to the growth curves of both strains in the absence of Mn porphyrin (controls). Deionized water was used throughout the study. The effects are shown in FIG. 2 for one strain (QC and GC) and in FIG. 3 for other strain (AB and JI). […] The effects varied with the type of the strain.

Male Sprague-Dawley rats = experiment: Carrageenan-induced paw oedema; format: in vivo; conditions: 0.3 mg/kg; rat paw
CD1 male mice = experiment: Carrageenan-induced pleurisy; format: in vivo; conditions: 0.3 mg/kg; 4 h after carrageenan
Protocol: Pleurisy is induced by carrageenan. Six to eight week old CD1 male mice are used. The mice are anesthetized with isoflurane and a skin incision is made at the level of the left sixth intercostal space. The underlying muscle is dissected and saline (0.2 ml) or saline containing 1% (w/v) λ-carrageenan (Sigma-Aldrich Ltd, 0.2 ml) is injected into the pleural cavity. The skin incision is closed with a suture and the animals are allowed to recover. At 4 h after the injection of carrageenan, the animals are killed. The chest is carefully opened and the pleural cavity is rinsed with 2 ml of saline solution containing heparin (5 U/ml) and indomethacin (10 μg/ml). The exudate and washing solution is removed by aspiration and the total volume is measured. Any exudate, which is contaminated with blood, is discarded. The amount of exudate is calculated by subtracting the volume injected (2 ml) from the total volume recovered. The leukocytes in the exudate are suspended in phosphate-buffer saline (PBS, 0.01M, pH7.4) and counted with an optical microscope in a Burker's chamber after vital Trypan Blue staining.

A-T cells = experiment: Annexin V/propidium iodide post-radiation apoptosis, A-T cells; format: cell-based; conditions: 5 Gy
Protocol: as §2

[4] = Redox properties: E1/2 of the Mn^IIIP/Mn^IIP redox couple; format: physicochemical
Protocol: as §1

Wildtype (WT) cells = experiment: Gamma H2AX immunofluorescence, radiation-induced DNA damage; format: cell-based; conditions: 2 Gy, assessed at 15 minutes
Protocol: Radiation-induced DNA damage recognition is measured by γ-H2AX immunofluorescence. Wildtype (WT) cells are propagated in fresh medium with the compounds at specified concentrations. […] WT cells are collected at log phase of their growth cycle, after an 18-hour incubation with the indicated compounds. After treatment, the cells are irradiated with 2 Gy and assessed at 15 minutes. These conditions maximize the yield of DNA damaged cells while minimizing cytotoxicity. The cells are dropped onto cover slips and fixed with 4% paraformaldehyde, semi-permeabilized with 0.5% Triton-X 100 and washed with PBS. Cells are incubated with 1:400 dilution of mouse monoclonal antibody to γ-H2AX (Upstate Biotechnology), followed by 1:200 dilution of goat anti-mouse IgG antibody to immunoglobulin labeled with FITC (Jackson Immunochemicals) in PBS containing 10% FBS for 1.5 and 1 h, respectively. Slides are analyzed for γ-H2AX nuclear foci formation with FISH analysis software (Vysis) on a Leica DM RXA automated microscope equipped with Photometrix SenSyn. All slides are coded by one person and read blindly by another.

[5] = Thin layer chromatography Rf (lipophilicity); format: physicochemical; conditions: thin-layer silica, saturated KNO3(aq):H2O:MeCN (1:1:8); measure of lipophilicity
Protocol: Thin layer chromatography (TLC) was carried out in polyester-backed silica-gel sheets without fluorescent indicator (Sigma-Aldrich Z122777-25EA) cut into ˜2×20 cm strips and eluted with a saturated KNO3(aq):H2O:MeCN (1:1:8, v/v/v) mixture in a capped 1 L chamber. Typically, 1 microliter of ˜1 mM samples were applied at ˜1 cm of the strip border and the solvent front was allowed to run ˜12 cm.
as §1
Rf is a measure of lipophilicity and is linearly related to log P where P is the partition coefficient between water and n-octanol. (Kos et al., Free Radic. Biol. Med., 47, 72-78, 2009, which is incorporated by reference herein).

Compound: MnTnPrOH-3-PyP^5+
- tumor devascularization (vascular length density) [1]: significant tumor devascularization
- logkcat [2]: 6.83
- reduction in the percentage of apoptotic cells after radiation exposure (wild type cells): 60%
- reduction of IR-induced cytotoxicity (WT cells): 50%
- delay of tumor growth [3]: Full delay of tumor growth
- protecting E. coli compared with MnTE-2-PyP^5+ (FIG. 3) (SOD-deficient E. coli; SOD-deficient strain JI / wild type AB): better
- protecting E. coli compared with MnTE-2-PyP^5+ (FIG. 2) (SOD-deficient E. coli; SOD-deficient strain QC / wild type GC): similar
- decrease of myeloperoxidase activity (Male Sprague-Dawley rats): to control levels
- decrease of number of polymorphonuclear cells (Male Sprague-Dawley rats): to control levels
- decrease of myeloperoxidase activity (CD1 male mice): to control levels
- decrease of number of polymorphonuclear cells (CD1 male mice): to control levels
- decrease of volume of exudates (CD1 male mice): to control levels
- reduction in the percentage of apoptotic cells after radiation exposure (A-T cells): 40%
- E1/2 [4]: +52 mV
- reduction of IR-induced γ-H2AX immunofluorescent nuclear foci (IRIFs) (Wildtype (WT) cells): 57%

- Rf [5]: 0.05
- E1/2 [4]: +238 mV
Compound: MnTnPrOH-2-PyP^5+
- tumor devascularization (vascular length density) [1]: significant tumor devascularization
- logkcat [2]: 7.38
- reduction in the percentage of apoptotic cells after radiation exposure (wild type cells): 60%
- reduction of IR-induced cytotoxicity (WT cells): 50%
- delay of tumor growth [3]: Full delay of tumor growth
- decrease of myeloperoxidase activity (Male Sprague-Dawley rats): to control levels
- decrease of number of polymorphonuclear cells (Male Sprague-Dawley rats): to control levels
- decrease of myeloperoxidase activity (CD1 male mice): to control levels
- decrease of number of polymorphonuclear cells (CD1 male mice): to control levels
- decrease of volume of exudates (CD1 male mice): to control levels
- reduction in the percentage of apoptotic cells after radiation exposure (A-T cells): 40%
- reduction of IR-induced γ-H2AX immunofluorescent nuclear foci (IRIFs) (Wildtype (WT) cells): 57%

- Rf [5]: 0.09
Compound: OCCC[n+]1ccccc1-c1c2nc(c(-c3cccc[n+]3CCCO)c3ccc([nH]3)c(-c3cccc[n+]3CCCO)c3nc(c(-c4cccc[n+]4CCCO)c4ccc1[nH]4)C=C3)C=C2 [H2TnPrOH-2-PyP]

- Rf [5]: 0.1
Compound: OCCC[n+]1cccc(-c2c3nc(c(-c4ccc[n+](CCCO)c4)c4ccc([nH]4)c(-c4ccc[n+](CCCO)c4)c4nc(c(-c5ccc[n+](CCCO)c5)c5ccc2[nH]5)C=C4)C=C3)c1 [H2TnPrOH-3-PyP]
